# The source made the active and inactive calls. The rule behind the calls is not given here.
# Tested on: not listed separately
# Assay: replicating M. tuberculosis growth inhibition, dose response, imaging, dry powder (AID 743404)
# Conditions: Mycobacterium tuberculosis replicating growth, CFU imaging; at 50 µM (top of the series)
row,Compound,"activity change, negative = inhibition"
1,O=C(Nc1nc2ccccc2n1-c1ccccc1)c1ccccc1,-7.02% (inactive)

# Same assay, conditions: Mycobacterium tuberculosis replicating growth, CFU imaging; at 100 µM (top of the series)
row,Compound,"activity change, negative = inhibition"
1,Cn1c(NC(=O)c2ccc(-n3ccnn3)cc2)nc2ccccc21,0.752% (inactive)
2,Cn1c(NC(=O)c2cccc(C(F)(F)F)c2)nc2ccccc21,-12.4% (inactive)
3,O=C(Nc1nc2ccccc2[nH]1)c1ccccc1,1.93% (inactive)
4,Cn1c(NC(=O)c2ccccc2)nc2cccnc21,-6.96% (inactive)
5,Cn1c(NC(=O)c2ccc(N3CCOC3=O)cc2)nc2ccccc21,3.62% (inactive)
6,COc1cccc2c1nc(NC(=O)c1ccccc1)n2C,-17.3% (inactive)
7,Cn1c(NC(=O)c2ccccc2)nc2ccc3ncccc3c21,-10.6% (inactive)
8,Cn1c(NS(=O)(=O)c2ccccc2)nc2ccccc21,-4.4% (inactive)
9,Cn1c(NC(=O)c2ccccc2)nc2cc(C(F)(F)F)ccc21,-1.86% (inactive)
10,O=C(Nc1nc2ccccc2n1C1CC1)c1ccccc1,-6.92% (inactive)
11,O=C(Nc1nc2ccccc2s1)c1ccccc1,-9.11% (inactive)
12,Cn1c(NC(=O)c2ccc(-c3ncco3)cc2)nc2ccccc21,-1.55% (inactive)
13,O=C(Nc1nc2ccccc2n1Cc1ccccc1)c1ccccc1,3.29% (inactive)
14,Cn1c(NC(=O)c2ccc(N3CCOCC3)cc2)nc2ccccc21,-9.12% (inactive)
15,COc1cccc(C(=O)Nc2nc3ccccc3n2C)c1,-11.3% (inactive)
16,Cc1ccc2c(c1)nc(NC(=O)c1ccccc1)n2C,-14.6% (inactive)
17,Cn1c(NC(=O)c2ccccc2)nc2ccc(C#N)cc21,4.9% (inactive)
18,COc1ccccc1C(=O)Nc1nc2ccccc2n1C,-18% (inactive)
19,Cc1cc(C(=O)Nc2nc3ccccc3n2C)on1,-7.86% (inactive)
20,Cn1c(NC(=O)c2ccncc2)nc2ccccc21,-9.25% (inactive)
21,Cn1c(NC(=O)c2ccc(-c3nccs3)cc2)nc2ccccc21,1.95% (inactive)
22,COCCn1c(NC(=O)c2ccccc2)nc2ccccc21,-13.8% (inactive)
23,Cn1c(NC(=O)c2ccccc2)nc2cc(Cl)ccc21,-6.62% (inactive)
24,Cn1c(NC(=O)c2ccc(C#N)cc2)nc2ccccc21,-1.94% (inactive)

row,Compound,"activity change, negative = inhibition"
1,Cn1c(NC(=O)c2ccc3ncoc3c2)nc2ccccc21,1.4% (inactive)
2,Cn1c(NC(=O)c2ccccc2Cl)nc2ccccc21,-2.89% (inactive)
3,O=C(Nc1nc2ccccc2n1CCN1CCOCC1)c1ccccc1,-5.41% (inactive)
4,Cn1c(NC(=O)c2ccc(F)c(F)c2)nc2ccccc21,1.94% (inactive)
5,Cn1c(NC(=O)c2ccc(Oc3ccccc3)cc2)nc2ccccc21,-18.8% (inactive)
6,Cn1c(NC(=O)c2ccc(Cl)c(Cl)c2)nc2ccccc21,0.098% (inactive)
7,Cn1c(NC(=O)c2ccno2)nc2ccccc21,-5.54% (inactive)
8,Cn1c(C(=O)Nc2ccccc2)nc2ccccc21,-11.4% (inactive)
9,Cn1c(NC(=O)c2cccs2)nc2ccccc21,-15.5% (inactive)
10,CN(C(=O)c1ccccc1)c1nc2ccccc2n1C,-7.26% (inactive)
11,Cn1c(NC(=O)Nc2ccccc2)nc2ccccc21,-16.1% (inactive)
12,CC(C)Oc1ccc(C(=O)Nc2nc3ccccc3n2C)cc1,-8.59% (inactive)
13,Cn1c(NC(=O)c2ccccc2)nc2ccc(F)cc21,-13% (inactive)
14,Cn1c(NC(=O)Cc2ccccc2)nc2ccccc21,-15.4% (inactive)
15,COc1ccc(C(=O)Nc2nc3ccccc3n2C)cc1,-7.64% (inactive)
16,CC(C)n1c(NC(=O)c2ccccc2)nc2ccccc21,-7.84% (inactive)
17,Cn1c(NC(=O)c2ccc(OC(F)(F)F)cc2)nc2ccccc21,1.97% (inactive)
18,Cn1c(NC(=O)c2ccccc2)nc2cc(F)ccc21,-9.27% (inactive)
19,CC(=O)Nc1nc2ccccc2n1C,-2.24% (inactive)
20,Cn1c(NC(=O)c2nc3ccccc3s2)nc2ccccc21,3.65% (inactive)
21,Cn1c(NC(=O)c2ccccc2C(F)(F)F)nc2ccccc21,-8.14% (inactive)
22,COc1ccc2c(c1)nc(NC(=O)c1ccccc1)n2C,-10.1% (inactive)
23,COc1ccc(C(=O)Nc2nc3ccccc3n2C)cc1OC,-3.35% (inactive)
24,Cn1c(NC(=O)c2ccccc2)nc2cccc(Cl)c21,-2% (inactive)

# Tested on: Mycobacterium tuberculosis replicating growth, CFU imaging
# Assay: as above
# Conditions: not given
row,Compound,AC90
1,Cn1c(NC(=O)c2ccccc2)nc2cc(C#N)ccc21,> 100 µM (inactive)
2,Cc1ccccc1C(=O)Nc1nc2ccccc2n1C,> 100 µM (inactive)
3,Cn1c(NC(=O)c2ccccc2)nc2c(Cl)cccc21,> 100 µM (inactive)
4,CO[C@H]1/C=C/O[C@@]2(C)Oc3c(C)c(O)c4c(O)c(c(C=NN5CCN(C)CC5)c(O)c4c3C2=O)NC(=O)/C(C)=C\C=C\[C@H](C)[C@H](O)[C@@H](C)[C@@H](O)[C@@H](C)[C@H](OC(C)=O)[C@@H]1C,6.43 µM
5,Cn1c(NC(=O)c2ccccc2)nc2c3ncccc3ccc21,10.6 µM
6,Cn1c(NC(=O)c2ccc(N3CCCCC3)cc2)nc2ccccc21,> 100 µM (inactive)
7,CCN(CC)CCn1c(NC(=O)c2ccccc2)nc2ccccc21,102 µM
8,Cn1c(N2CCN(C(=O)c3ccccc3)CC2)nc2ccccc21,> 100 µM (inactive)
9,Cn1c(NC(=O)c2ccccc2)nc2c3cnccc3ccc21,14.4 µM
10,CN1CCN(c2ccc(C(=O)Nc3nc4ccccc4n3C)cc2)CC1,> 100 µM (inactive)
11,O=C(Nc1nc2ccccc2n1C1CCCCC1)c1ccccc1,> 100 µM (inactive)
12,Cn1c(NC(=O)c2ccccc2)nc2c(C#N)cccc21,> 100 µM (inactive)
13,Cn1c(N)nc2ccccc21,> 50 µM (inactive)
14,Cn1c(NC(=O)c2cccnc2)nc2ccccc21,99.8 µM
15,Cn1c(NC(=O)c2ccccc2)nc2c3nccnc3ccc21,63.9 µM
16,Cn1c(NC(=O)c2ccccc2)nc2c3ccncc3ccc21,18.4 µM

# Reference: PubChem BioAssay AID743404 (Broad Institute, 2014)
